Measurements taken from patent publication US20250304567A1, “PYRROLIDIONE DERIVATIVES AS INHIBITORS OF NF KAPPA B INDUCING KINASE” (priority 2022, published 2025).
Like-named read-outs stand apart in the source and are kept apart here.

Legend:
[1] = target: Recombinant Human NF-kappaB-Inducing Kinase (NIK/MAP3K14) (Homo sapiens, UniProt Q99558); test: Inhibition of auto-phosphorylation of recombinant human NIK/MAP3K14 activity (AlphaScreen); type: biochemical; conditions: 5 μM ATP, 1 nM NIK, average if tested more than once
Protocol: Assay 1: Inhibition of Auto-Phosphorylation of Recombinant Human NF-kappaB-Inducing Kinase (NIK/MAP3K14) Activity (AlphaScreen™)
NIK/MAP3K14 auto-phosphorylation activity was measured using the AlphaScreen™ (αscreen) format (Perkin Elmer). All compounds tested were dissolved in dimethyl sulfoxide (DMSO) and further dilutions were made in assay buffer. The final DMSO concentration was 0.7% (v/v) in assays. The assay buffer was 50 mM Tris pH 7.5 containing 1 mM EGTA (ethylene glycol tetraacetic acid), 1 mM DTT (dithiothreitol), 0.1 mM Na3VO4, 5 mM MgCl2, and 0.01% Tween®20. The assays were carried out in 384 well Proxiplates (Perkin Elmer). The incubations consisted of the compound, 5 μM Adenosine-5′-triphosphate (ATP), and 1 nM NIK/MAP3K14. Incubations were initiated by the addition of GST-tagged NIK/MAP3K14 enzyme, carried out for 2 h at 25° C. and terminated by addition of stop buffer containing anti-phospho-IKK Ser176/180 antibody. Protein A Acceptor and Glutathione-Donor beads were added before reading using an EnVision Multilabel Plate Reader (Perkin Elmer). The signal obtained in the wells was normalized using high (full enzyme activity, 0.7% DMSO) and low controls (no enzyme activity, 0.7% DMSO, no ATP). IC50's were determined by fitting a sigmoidal curve to % inhibition of control versus Log10 compound concentration.

[2] = system: p-IKKa levels in L363 (NIK translocated multiple myeloma) cells; test: Effect of compounds on p-IKKa levels in L363 (NIK translocated multiple myeloma) cells (AlphaLISA SureFire Ultra p-IKKa Ser176/180); type: cell-based, human; conditions: average if tested more than once, read-out: Assay 2 IC50
Protocol: Assay 2: Effect of Compounds on p-IKKa Levels in L363 (NIK Translocated Multiple Myeloma) Cells
All compounds tested were dissolved and serially diluted in DMSO, 1:3 dilution for 11 points in an Echo compatible plate. 100% DMSO was added to columns 12 and 24 of the plate to serve as high and low signal controls. This compound plate was used to spot 20 nL of compound or DMSO into a Greiner 384 well TC plate (781080). The final DMSO concentration was 0.3% (v/v) in cell assays. Human L363 cells (ATCC) were cultured in RPM11640 medium supplemented with GlutaMax, non-essential amino acids, sodium pyruvate and 10% fetal bovine serum. Cells were routinely maintained at densities of 0.2×10^6 cells per ml-2×10^6 cells per mL at 37° C. in a humidified 5% CO2 atmosphere incubator. Cells were passaged twice a week splitting back to obtain the low density. The day before the assay, cells were washed twice in HBSS (Hank's Balanced Salt Solution), resuspended in Dulbecco's Modified Eagle Medium (DMEM)+0.5% IgG and protease free BSA (Jackson Immuno Research Laboratories), +/−250 ng/ml recombinant human B-cell activating factor (BAFF/BLyS/TNFSF13B) and incubated overnight at 37° C. in a humidified 5% CO2 atmosphere (bulk stimulation with or without BAFF). The next day, the cell concentration was adjusted to 1×10^7 cells/ml in DMEM+/−250 ng/ml BAFF+/−10 μM MG132 and plated at 10 μl/well into compound or DMSO spotted 384 well TC plates. Seeded cells were incubated at 37° C. in a humidified 5% CO2 atmosphere for 6 h. After 6 h, the plates were removed from the incubator and cell lysis was achieved by the addition of 2.5 μl 5× lysis buffer containing protease and phosphatase inhibitors, followed by shaking on a plate shaker at room temperature for 15 min. At the end of this incubation, lysed cells were sequentially treated and incubated with acceptor and donor bead mixes according to the manufacturer's protocol for a 1 plate/2-incubation suspension cell assay (AlphaLISA SureFire Ultra p-IKKa (Ser 176/180) Assay Kit (Perkin Elmer). Plates were read using an EnVision Multilabel Plate Reader (Perkin Elmer). Within an experiment, a concentration response curve for each compound was run in duplicate. The signal obtained in the test wells was normalized using high signal (BAFF stimulated cells, DMSO, MG132) and low signal (unstimulated cells, DMSO) controls. To determine the IC50, a sigmoidal curve was fitted to the plot of % inhibition versus Log10 compound concentration.

[3] = Homo sapiens, L-363, p-IKKa levels in L363 cells

Sequence of Recombinant Human NF-kappaB-Inducing Kinase (NIK/MAP3K14) (Q99558 whole entry): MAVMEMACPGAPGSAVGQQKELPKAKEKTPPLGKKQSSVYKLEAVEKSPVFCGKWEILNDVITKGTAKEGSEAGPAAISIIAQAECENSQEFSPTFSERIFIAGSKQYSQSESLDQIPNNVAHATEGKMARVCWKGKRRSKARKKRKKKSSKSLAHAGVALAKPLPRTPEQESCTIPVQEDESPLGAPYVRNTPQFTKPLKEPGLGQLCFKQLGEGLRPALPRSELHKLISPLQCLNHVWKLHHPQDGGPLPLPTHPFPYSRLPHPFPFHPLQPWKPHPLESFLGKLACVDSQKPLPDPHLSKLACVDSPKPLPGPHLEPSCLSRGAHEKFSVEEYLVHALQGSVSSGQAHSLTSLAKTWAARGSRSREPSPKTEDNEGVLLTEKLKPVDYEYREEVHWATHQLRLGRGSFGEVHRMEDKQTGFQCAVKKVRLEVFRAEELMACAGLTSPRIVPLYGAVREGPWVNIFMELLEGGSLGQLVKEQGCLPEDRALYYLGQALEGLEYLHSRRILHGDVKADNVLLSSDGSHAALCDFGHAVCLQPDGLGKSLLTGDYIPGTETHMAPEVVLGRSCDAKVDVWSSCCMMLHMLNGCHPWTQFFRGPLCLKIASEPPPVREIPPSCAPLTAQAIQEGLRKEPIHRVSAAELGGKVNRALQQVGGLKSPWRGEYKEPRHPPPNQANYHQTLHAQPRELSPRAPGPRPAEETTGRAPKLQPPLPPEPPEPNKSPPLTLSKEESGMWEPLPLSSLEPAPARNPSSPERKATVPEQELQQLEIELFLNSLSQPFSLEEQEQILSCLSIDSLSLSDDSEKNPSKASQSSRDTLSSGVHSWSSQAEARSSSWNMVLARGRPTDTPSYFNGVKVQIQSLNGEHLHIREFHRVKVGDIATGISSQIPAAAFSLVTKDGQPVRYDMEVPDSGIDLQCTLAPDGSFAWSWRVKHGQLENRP

Structure (SMILES)	IC50 [1] [nM]	IC50 [2, 3] [nM]	IC50 ([2]; p-IKKa levels in L363 cells) [nM]
COc1nn(C)cc1Nc1nccc(-c2csc(-c3cccc([C@]4(O)CCN(C)C4=O)c3)n2)n1 [Example 104, (R)-3-hydroxy-3-(3-(4-(2-((3-methoxy-1-methyl-1H-pyrazol-4-yl)amino)pyrimidin-4-yl)thiazol-2-yl)phenyl)-1-methylpyrrolidin-2-one]	< 100	< 100	–
CN1CC[C@@](O)(c2cccc(-c3nc(-c4ccnc(N[C@@H]5CCCc6cn[nH]c65)n4)cs3)c2)C1=O (single isomer, unassigned) [Example 135]	> 501	> 501	–
CN1CC[C@@](O)(c2cccc(-c3nc(-c4ccnc(NC5CCCn6nccc65)n4)cs3)c2)C1=O (stereo partly drawn) [Example 123, (R)-3-hydroxy-1-methyl-3-(3-(4-(2-(((R,S)-4,5,6,7-tetrahydropyrazolo[1,5-a]pyridin-4-yl)amino)pyrimidin-4-yl)thiazol-2-yl)phenyl)pyrrolidin-2-one]	< 100	> 501	–
CC(C)n1nccc1Nc1nccc(-c2csc(-c3cccc([C@]4(O)CCN(C)C4=O)c3)n2)n1 [Example 66, (R)-3-hydroxy-3-(3-(4-(2-((1-isopropyl-1H-pyrazol-5-yl)amino)pyrimidin-4-yl)thiazol-2-yl)phenyl)-1-methylpyrrolidin-2-one]	100 to 500	> 501	–
CC(Nc1nccc(-c2csc(-c3cccc([C@]4(O)CCN(C)C4=O)c3)n2)n1)c1nc2ccccc2[nH]1 (stereo partly drawn) [Example 45, (R)-3-(3-(4-(2-(((R,S)-1-(1H-benzo[d]imidazol-2-yl)ethyl)amino)pyrimidin-4-yl)thiazol-2-yl)phenyl)-3-hydroxy-1-methylpyrrolidin-2-one]	< 100	–	> 501
CN1CC[C@@](O)(c2cccc(-c3nc(-c4ccnc(NCCC(C)(C)O)n4)cs3)c2)C1=O [Example 239]	100 to 500	> 501	–
CN1CC[C@@](O)(c2cccc(-c3nc(-c4ccnc(Nc5cnn(C(F)F)c5)n4)cs3)c2)C1=O [Example 271, (R)-3-(3-(4-(2-((1-(Difluoromethyl)-1H-pyrazol-4-yl)amino)pyrimidin-4-yl)thiazol-2-yl)phenyl)-3-hydroxy-1-methylpyrrolidin-2-one]	< 100	100 to 500	–
Cc1cc(Nc2nccc(-c3csc(-c4cccc([C@]5(O)CCN(C)C5=O)c4)n3)n2)ncn1 [Example 106, (R)-3-hydroxy-1-methyl-3-(3-(4-(2-((6-methylpyrimidin-4-yl)amino)pyrimidin-4-yl)thiazol-2-yl)phenyl)pyrrolidin-2-one]	< 100	> 501	–
CN1CC[C@@](O)(c2cncc(-c3ccn(-c4ccnc(Nc5ccn(C)n5)n4)n3)c2)C1=O (single isomer, unassigned) [Example 147, (R)-3-hydroxy-1-methyl-3-(5-(1-(2-((1-methyl-1H-pyrazol-3-yl)amino)pyrimidin-4-yl)-1H-pyrazol-3-yl)pyridin-3-yl)pyrrolidin-2-one or (S)-3-hydroxy-1-methyl-3-(5-(1-(2-((1-methyl-1H-pyrazol-3-yl)amino)pyrimidin-4-yl)-1H-pyrazol-3-yl)pyridin-3-yl)pyrrolidin-2-one]	< 100	100 to 500	–
C[C@H](Nc1nccc(-c2nc(-c3cc([C@]4(O)CCN(C)C4=O)ccn3)cs2)n1)c1ccn(C)n1 (single isomer, unassigned) [Example 156, (R)-3-hydroxy-1-methyl-3-(2-(2-(2-(((S)-1-(1-methyl-1H-pyrazol-3-yl)ethyl)amino)pyrimidin-4-yl)thiazol-4-yl)pyridin-4-yl)pyrrolidin-2-one or (S)-3-hydroxy-1-methyl-3-(2-(2-(2-(((S)-1-(1-methyl-1H-pyrazol-3-yl)ethyl)amino)pyrimidin-4-yl)thiazol-4-yl)pyridin-4-yl)pyrrolidin-2-one]	< 100	100 to 500	–
CN1CC[C@@](O)(c2cccc(-c3csc(-c4ccnc(Nc5cnn(CC(F)F)c5)n4)n3)c2)C1=O [Example 80, (R)-3-(3-(2-(2-((1-(2,2-difluoroethyl)-1H-pyrazol-4-yl)amino)pyrimidin-4-yl)thiazol-4-yl)phenyl)-3-hydroxy-1-methylpyrrolidin-2-one]	< 100	< 100	–
CN1CC[C@@](O)(c2cccc(-c3nc(-c4ccnc(Nc5cnn6ccccc56)n4)cs3)c2)C1=O [Example 264, (R)-3-Hydroxy-1-methyl-3-(3-(4-(2-(pyrazolo[1,5-a]pyridin-3-ylamino)pyrimidin-4-yl)thiazol-2-yl)phenyl)pyrrolidin-2-one]	< 100	< 100	–
CN1CC[C@@](O)(c2cncc(-c3ccn(-c4ccnc(Nc5cn(CC(F)F)nc5OC5CC5)n4)n3)c2)C1=O (single isomer, unassigned) [Example 145, (R)-3-(5-(1-(2-((3-cyclopropoxy-1-(2,2-difluoroethyl)-1H-pyrazol-4-yl)amino)pyrimidin-4-yl)-1H-pyrazol-3-yl)pyridin-3-yl)-3-hydroxy-1-methylpyrrolidin-2-one or (S)-3-(5-(1-(2-((3-cyclopropoxy-1-(2,2-difluoroethyl)-1H-pyrazol-4-yl)amino)pyrimidin-4-yl)-1H-pyrazol-3-yl)pyridin-3-yl)-3-hydroxy-1-methylpyrrolidin-2-one]	< 100	< 100	–
CN1CC[C@@](O)(c2cccc(-c3nc(-c4ccnc(Nc5cnn(C6CCOCC6)c5)n4)cs3)c2)C1=O [Example 273, (R)-3-Hydroxy-1-methyl-3-(3-(4-(2-((1-(tetrahydro-2H-pyran-4-yl)-1H-pyrazol-4-yl)amino)pyrimidin-4-yl)thiazol-2-yl)phenyl)pyrrolidin-2-one]	< 100	< 100	–
CN1CC[C@@](O)(c2cccc(-c3nc(-c4ccnc(Nc5cn(C)nn5)n4)cs3)c2)C1=O [Example 283, (R)-3-hydroxy-1-methyl-3-(3-(4-(2-((1-methyl-1H-1,2,3-triazol-4-yl)amino)pyrimidin-4-yl)thiazol-2-yl)phenyl)pyrrolidin-2-one]	< 100	100 to 500	–
CN1CC[C@@](O)(c2cccc(-c3nc(-c4ccnc(NC5CCC5)n4)cs3)c2)C1=O [Example 131, (R)-3-(3-(4-(2-(cyclobutylamino)pyrimidin-4-yl)thiazol-2-yl)phenyl)-3-hydroxy-1-methylpyrrolidin-2-one]	< 100	> 501	–
CC(Nc1nccc(-c2csc(-c3cccc([C@]4(O)CCN(C)C4=O)c3)n2)n1)c1ccn(C)n1 (stereo partly drawn) [Example 112, (R)-3-hydroxy-1-methyl-3-(3-(4-(2-(((R,S)-1-(1-methyl-1H-pyrazol-3-yl)ethyl)amino)pyrimidin-4-yl)thiazol-2-yl)phenyl)pyrrolidin-2-one]	< 100	> 501	–
CN1CC[C@@](O)(c2cccc(-c3nc(-c4ccnc(Nc5ccn(CC(F)F)n5)n4)cs3)c2)C1=O [Example 258, (R)-3-(3-(4-(2-((1-(2,2-Difluoroethyl)-1H-pyrazol-3-yl)amino)pyrimidin-4-yl)thiazol-2-yl)phenyl)-3-hydroxy-1-methylpyrrolidin-2-one]	< 100	100 to 500	–
